Results on 17 molecules are retold here after publication PMC6862662, “In Vitro Evaluation and Docking Studies of 5-oxo-5H-furo[3,2-g]chromene-6-carbaldehyde Derivatives as Potential Anti-Alzheimer’s Agents” (International Journal of Molecular Sciences, 2019).

The target in test [1] is T1, AChE (Homo sapiens, UniProt P22303).
T1 construct: purchased BL, purchased through BIOCOM Africa (Pty) Ltd. 768104
Description: biochemical. Conditions: for IC50: Ellman's method, triplicate, read-out: IC50 (µM) AChE; for SI BChE/AChE: Selectivity index IC50 (BChE)/IC50 (AChE). On the technique in general: Ellman's reagent forms a yellow product with free thiols.

Test [2] has as its target T2, BChE (Homo sapiens, UniProt P06276).
T2 construct: purchased cloud-clone corp., purchased through BIOCOM Africa (Pty) Ltd. RPC348Hu0 2_100
The experiment in a line: biochemical. Conditions: for IC50: Ellman's method, triplicate; for SI AChE/BChE: Selectivity index IC50 (AChE)/IC50 (BChE).
Description: The mixtures were incubated for 15 min at RT. The reaction was initiated by adding of 10 µL of mixture solution of 5 mM 5,50-dithio-bis-nitrobenzoic acid (DTNB) in 50 mM tris buffer (pH 7.7) and 10 µL acetylthiocholine (ASCh; 5 mM) in 50 mM tris buffer, pH 7.7 into the wells containing the mixtures. The hydrolysis of ASCh was determined by monitoring the formation of the yellow 5-thio-2-nitrobenzoate anion resulting from reaction of DTNB with thiocholines (SCh).
The IC50 values were determined graphically from inhibition curves (inhibitor concentration and absorbance) using the graph pad prism.

Test [3] addresses T2, BChE. Description: Kinetic studies against BChE (Lineweaver–Burk and Dixon plots). Conditions: for Ki: Dixon plots; for mode of inhibition against BChE: Lineweaver–Burk and Dixon plots. In kind it is biochemical. The method, then: (§1) Compounds 2f, 2b, 2f, 3b, 3d and 3f were selected for the kinetic studies with substrate concentrations 0.1, 0.5, 2. 5 and 5 µM for ChEs following procedures described in our previous investigation. The Lineweaver–Burk plots (plots of the inverse of velocity (1/v) against the inverse of the substrate concentration (1/[S])) were used to ascertain the mode of inhibition of these compounds.

Test [4] concerns the target T1, AChE. Description: Kinetic studies against AChE (Lineweaver–Burk and Dixon plots). Conditions: for Ki: Dixon plots; for mode of inhibition against AChE: Lineweaver–Burk and Dixon plots. In kind it is biochemical. On the procedure: as §1
The target of another test is T3, human recombinant BACE-1 (Homo sapiens, UniProt P56817).
T3 construct: purchased Pan Vera; host or cells: baculovirus-expressed
Description: β-secretase FRET inhibitory assay. Conditions: triplicate. In kind it is biochemical.

Test [5] is described as follows: DPPH radical scavenging activity assay. Conditions: triplicate, preliminary. On the procedure: DPPH radical scavenging activity of compounds 2b, 2f, 3b, 3d and 3f was evaluated following the literature method. Ascorbic acid (Sigma Aldrich, Saint Louis, Missouri, USA) was used as a positive control. The test compounds and controls at various concentrations ranging from (0 µM to 40 µM) in DMSO were mixed with a solution of DPPH (0.20 mM) in methanol. The mixtures were incubated in the dark for 45 min and the absorbances were recorded at 512 nm using Varioskan flash microplate spectrophotometer reader. All tests and analyses were run in triplicate and averaged. The inhibition was calculated in terms of percentage using the formula below:(5) DPPH radical scavenged (%)=AbC−AbS/AbC×100, where AbC is absorbance of control and AbS the absorbance of the test sample.

Structures are written as SMILES.

T2 sequence (P06276 29-602): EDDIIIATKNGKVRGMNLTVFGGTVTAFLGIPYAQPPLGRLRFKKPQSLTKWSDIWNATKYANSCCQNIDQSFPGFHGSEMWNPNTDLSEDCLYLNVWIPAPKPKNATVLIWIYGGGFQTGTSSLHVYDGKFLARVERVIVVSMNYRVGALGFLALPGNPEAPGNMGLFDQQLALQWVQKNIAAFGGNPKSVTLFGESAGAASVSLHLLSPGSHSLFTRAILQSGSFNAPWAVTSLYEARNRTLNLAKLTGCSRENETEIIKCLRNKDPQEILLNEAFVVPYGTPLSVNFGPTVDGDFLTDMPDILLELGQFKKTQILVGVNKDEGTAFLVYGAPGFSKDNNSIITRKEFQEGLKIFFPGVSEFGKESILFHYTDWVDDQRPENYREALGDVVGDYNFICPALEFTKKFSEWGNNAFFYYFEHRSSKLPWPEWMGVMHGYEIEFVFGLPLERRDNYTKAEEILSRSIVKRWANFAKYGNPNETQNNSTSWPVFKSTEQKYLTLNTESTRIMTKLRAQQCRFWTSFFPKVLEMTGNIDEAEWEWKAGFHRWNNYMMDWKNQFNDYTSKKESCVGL
T3 sequence (P56817 46-501): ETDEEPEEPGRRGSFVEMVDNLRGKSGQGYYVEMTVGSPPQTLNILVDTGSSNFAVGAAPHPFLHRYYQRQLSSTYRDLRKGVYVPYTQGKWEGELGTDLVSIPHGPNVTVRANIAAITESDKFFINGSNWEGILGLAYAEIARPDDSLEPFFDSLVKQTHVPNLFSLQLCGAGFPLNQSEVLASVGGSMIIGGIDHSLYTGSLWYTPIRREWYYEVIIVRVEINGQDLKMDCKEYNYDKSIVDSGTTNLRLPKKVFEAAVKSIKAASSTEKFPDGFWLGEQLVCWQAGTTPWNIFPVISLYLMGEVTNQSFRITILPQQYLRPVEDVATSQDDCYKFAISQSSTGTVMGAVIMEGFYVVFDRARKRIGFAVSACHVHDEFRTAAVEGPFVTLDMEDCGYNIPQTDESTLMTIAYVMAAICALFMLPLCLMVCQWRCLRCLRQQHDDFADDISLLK
T1 sequence (P22303 32-614): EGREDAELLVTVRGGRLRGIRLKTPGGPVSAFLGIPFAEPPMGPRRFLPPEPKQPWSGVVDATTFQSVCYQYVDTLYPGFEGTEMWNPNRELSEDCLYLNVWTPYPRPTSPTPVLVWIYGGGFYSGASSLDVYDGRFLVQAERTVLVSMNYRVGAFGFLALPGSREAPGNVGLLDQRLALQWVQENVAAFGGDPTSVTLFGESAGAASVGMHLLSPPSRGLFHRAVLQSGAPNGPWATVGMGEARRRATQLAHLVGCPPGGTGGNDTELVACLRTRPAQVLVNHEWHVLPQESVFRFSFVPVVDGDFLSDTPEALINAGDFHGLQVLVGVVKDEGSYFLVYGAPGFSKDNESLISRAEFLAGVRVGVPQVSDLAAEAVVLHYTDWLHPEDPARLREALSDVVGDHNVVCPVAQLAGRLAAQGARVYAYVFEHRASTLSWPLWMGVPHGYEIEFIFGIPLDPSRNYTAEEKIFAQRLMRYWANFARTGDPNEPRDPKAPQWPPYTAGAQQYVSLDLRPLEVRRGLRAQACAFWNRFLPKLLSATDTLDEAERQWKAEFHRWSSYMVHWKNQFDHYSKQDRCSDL

The term IC50 denotes the midpoint of a concentration-inhibition curve. Regarding `O=Cc1coc2cc3oc(C4=CCCCC4)cc3cc2c1=O` [Compound 2i, 2-(Cyclohex-1-en-1-yl)-5-oxo-5H-furo[3,2-g]chromene-6-carbaldehyde], on AChE [1], the IC50 was determined as 22.6 ± 0.03 µM and the “SI BChE/AChE” value is listed as 1.54. At BChE [2], half-maximal inhibition (IC50) required 34.8 ± 0.02 µM and the “SI AChE/BChE” value is 0.65.

Usually Ki stands for the equilibrium dissociation constant of an inhibitor or competing ligand from its target. Higher therefore signals a looser hold on the target. For the molecule `O=c1c(C=NNc2ccc(C(F)(F)F)cc2)coc2cc3oc(-c4cccc(F)c4)cc3cc12` [Compound 3b, 2-(3-Fluorophenyl)-6-[(4-trifluoromethylphenyl)hydrazonomethyl]furo[3,2-g]chromen-5-one], on BChE [3], the Ki stood at 6.1 ± 0.02 µM and the “mode of inhibition against BChE” value is “non-competitive”. Further, at AChE [1], the IC50 was determined as 7.6 ± 0.03 µM and the “SI BChE/AChE” value is 1.47. Further, at AChE [4], the inhibition constant Ki was 0.58 ± 0.04 µM and the “mode of inhibition against AChE” value was “non-competitive”. Also, the IC50 at human recombinant BACE-1 came out at 17.3 ± 0.03 µM. Also, the IC50 in test [5] came to 21.8 ± 0.02 µM. Further, at BChE [2], the IC50 came out at 11.2 ± 0.02 µM and the “SI AChE/BChE” value came to 0.68.

As to `O=Cc1coc2cc3oc(-c4ccc(F)cc4)cc3cc2c1=O` [Compound 2c, 2-(4-Fluorophenyl)-5-oxo-5H-furo[3,2-g]chromene-6-carbaldehyde], on AChE [1], the IC50 was 15.3 ± 0.01 µM and the “SI BChE/AChE” value stood at 1.03. At BChE [2], the midpoint of inhibition, the IC50, lay at 15.7 ± 0.02 µM and the “SI AChE/BChE” value is 0.97.

In the case of `COc1cc(OC)cc(-c2cc3cc4c(=O)c(C=O)coc4cc3o2)c1` [Compound 2g, 2-(3,5-Dimethoxyphenyl)-5-oxo-5H-furo[3,2-g]chromene-6-carbaldehyde], on AChE [1], the IC50 was determined as 10.8 ± 0.02 µM and the “SI BChE/AChE” value worked out at 3.81. Also, on BChE [2], the IC50 was 41.2 ± 0.03 µM and the “SI AChE/BChE” value is 0.26.

Turning to `COc1ccc(-c2cc3cc4c(=O)c(C=NNc5ccc(C(F)(F)F)cc5)coc4cc3o2)cc1` [Compound 3f, 2-(4-Methoxyphenyl)-6-[(4-trifluoromethylphenyl)hydrazonomethyl]furo[3,2-g]chromen-5-one], on BChE [3], the affinity corresponds to a Ki of 5.4 ± 0.04 µM and the “mode of inhibition against BChE” value is “competitive”. Also, the “Vmax against BChE” value on BChE [3] (Lineweaver–Burk plots, substrate 0–5 µM) is listed as 0.013 ± 0.02. Moreover, on AChE [1], the IC50 worked out at 5.4 ± 0.02 µM and the “SI BChE/AChE” value stood at 1.78. For the same molecule, at AChE [4], the Ki was determined as 8.16 ± 0.02 µM and the “mode of inhibition against AChE” value is listed as “non-competitive”. The IC50 at human recombinant BACE-1 was 25.3 ± 0.04 µM. The molecule further showed an IC50 in test [5] of 23.9 ± 0.04 µM. For the same molecule, on BChE [2], the IC50 came to 9.6 ± 0.05 µM and the “SI AChE/BChE” value was 0.56.

Consider `O=c1c(C=NNc2ccc(C(F)(F)F)cc2)coc2cc3oc(-c4ccccc4)cc3cc12` [Compound 3a, 2-Phenyl-6-[(4-trifluoromethylphenyl)hydrazonomethyl]furo[3,2-g]chromen-5-one], for which, on AChE [1], the IC50 was determined as 18.4 ± 0.01 µM and the “SI BChE/AChE” value amounted to 1.43. On BChE [2], it took 26.3 ± 0.02 µM to reach half-maximal inhibition (IC50) and the “SI AChE/BChE” value was found to be 0.70.

As for `O=Cc1coc2cc3oc(-c4ccc(Cl)cc4)cc3cc2c1=O` [Compound 2e, 2-(4-Chlorophenyl)-5-oxo-5H-furo[3,2-g]chromene-6-carbaldehyde], the IC50 on AChE [1] was 21.8 ± 0.03 µM; on BChE [2] it was 14 ± 0.04 µM. Also, the “SI AChE/BChE” value at BChE [2] was found to be 1.61.

As for `Cc1ccc(-c2cc3cc4c(=O)c(C=NNc5ccc(C(F)(F)F)cc5)coc4cc3o2)cc1` [Compound 3h, 2-(4-p-Tolyl)-6-[(4-trifluoromethylphenyl)hydrazonomethyl]furo[3,2-g]chromen-5-one], at AChE [1], the IC50 came out at 10.5 ± 0.03 µM and the “SI BChE/AChE” value was 3.37. Also, at BChE [2], the IC50 was 35.4 ± 0.015 µM and the “SI AChE/BChE” value was 0.30.

Regarding `Cc1ccc(-c2cc3cc4c(=O)c(C=O)coc4cc3o2)cc1` [Compound 2h, 5-Oxo-2-(p-tolyl)-5H-furo[3,2-g]chromene-6-carbaldehyde], at AChE [1], the IC50 was determined as 12.9 ± 0.01 µM and the “SI BChE/AChE” value was 2.18. Moreover, on BChE [2], the midpoint of inhibition, the IC50, lay at 28.1 ± 0.03 µM and the “SI AChE/BChE” value is 0.46.

Consider `O=c1c(C=NNc2ccc(C(F)(F)F)cc2)coc2cc3oc(-c4ccc(Cl)cc4)cc3cc12` [Compound 3e, 2-(4-Chlorophenyl)-6-[(4-trifluoromethylphenyl)hydrazonomethyl]furo[3,2-g]chromen-5-one], for which, on AChE [1], the IC50 was determined as 12.9 ± 0.02 µM and the “SI BChE/AChE” value came to 1.91. Also, on BChE [2], the midpoint of inhibition, the IC50, lay at 24.6 ± 0.02 µM and the “SI AChE/BChE” value came out at 0.52.

`O=Cc1coc2cc3oc(-c4cccc(F)c4)cc3cc2c1=O` [Compound 2b, 2-(3-Fluorophenyl)-5-oxo-5H-furo[3,2-g]chromene-6-carbaldehyde]: on BChE [3], the Ki is 1.7 ± 0.01 µM and the “mode of inhibition against BChE” value is “non-competitive”. Moreover, at AChE [1], the IC50 was 5.4 ± 0.05 µM and the “SI BChE/AChE” value was 1.19. Also, on AChE [4], the Ki came out at 1.1 ± 0.02 µM and the “mode of inhibition against AChE” value was “non-competitive”. Besides, the IC50 at human recombinant BACE-1 is 21.6 ± 0.01 µM. The same molecule displayed an IC50 in test [5] of 7.4 ± 0.01 µM. At BChE [2], half-maximal inhibition (IC50) required 6.4 ± 0.04 µM and the “SI AChE/BChE” value is listed as 0.84.

Regarding `COc1cc(OC)cc(-c2cc3cc4c(=O)c(C=NNc5ccc(C(F)(F)F)cc5)coc4cc3o2)c1` [Compound 3g, 2-(3,5-Dimethoxyphenyl)-6-[(4-trifluoromethylphenyl)hydrazonomethyl]furo[3,2-g]chromen-5-one], at AChE [1], the IC50 was found to be 34.9 ± 0.01 µM and the “SI BChE/AChE” value turned out to be 0.89. At BChE [2], the IC50 turned out to be 31.2 ± 0.04 µM and the “SI AChE/BChE” value is 1.12.

Turning to `O=Cc1coc2cc3oc(-c4cccc(Cl)c4)cc3cc2c1=O` [Compound 2d, 2-(3-Chlorophenyl)-5-oxo-5H-furo[3,2-g]chromene-6-carbaldehyde], on AChE [1], the IC50 is 33.4 ± 0.03 µM and the “SI BChE/AChE” value is recorded as 0.65. Besides, at BChE [2], the concentration for half-maximal inhibition (IC50) was found to be 21.6 ± 0.01 µM and the “SI AChE/BChE” value worked out at 1.54.

Regarding `O=Cc1coc2cc3oc(-c4ccccc4)cc3cc2c1=O` [Compound 2a, 5-Oxo-2-phenyl-5H-furo[3,2-g]chromene-6-carbaldehyde], at AChE [1], the IC50 worked out at 28.6 ± 0.01 µM and the “SI BChE/AChE” value came out at 0.43. Besides, at BChE [2], the IC50 is 12.3 ± 0.02 µM and the “SI AChE/BChE” value came to 2.33.

For `O=c1c(C=NNc2ccc(C(F)(F)F)cc2)coc2cc3oc(C4=CCCCC4)cc3cc12` [Compound 3i, 2-(Cyclohex-1-en-1-yl)-6-((2-(4-(trifluoromethyl)phenyl)hydrazono)methyl)-5H-furo[3,2-g]chromen-5-one], at AChE [1], the IC50 came to 29.8 ± 0.01 µM and the “SI BChE/AChE” value is given as 1.04. In addition, at BChE [2], the 50% inhibitory concentration (IC50) was determined as 30.9 ± 0.02 µM and the “SI AChE/BChE” value is recorded as 0.96.

In the case of `O=C1O[C@H]([C@@H](O)CO)C(O)=C1O` [Ascorbic acid, reference compound], the IC50 in test [5] was determined as 4.8 ± 0.01 µM.

In the case of `O=c1c(C=NNc2ccc(C(F)(F)F)cc2)coc2cc3oc(-c4ccc(F)cc4)cc3cc12` [Compound 3c, 2-(4-Fluorophenyl)-6-[(4-trifluoromethylphenyl)hydrazonomethyl]furo[3,2-g]chromen-5-one], at AChE [1], the IC50 was found to be 21.2 ± 0.01 µM and the “SI BChE/AChE” value was found to be 0.67. At BChE [2], it took 14.1 ± 0.01 µM to reach half-maximal inhibition (IC50) and the “SI AChE/BChE” value was determined as 1.49.
